# According to patent US11376259B2, “Targeted treatment of mature T-cell lymphoma” (Eli Lilly and Company, priority 2016, dated 2022):
# Experiments:
# AITL = test: Clinical evaluation in patients with relapsed or refractory peripheral T-cell lymphoma (AITL patients); assay type: in vivo, human; settings: cycle 1, oral capsules T.I.W., preliminary data
# Excerpt: (§1) A study of 4,4,4-Trifluoro-N-[(1S)-2-[[(7S)-5-(2-hydroxyethyl)-6-oxo-7H-pyrido[2,3-d][3]benzazepin-7-yl]amino]-1-methyl-2-oxo-ethyl]butanamide hydrate in patients with advanced or metastatic cancer.
# (§2) This study is a multicenter, nonrandomized, open-label, dose-escalation study followed by cohort expansion of oral dosed 4,4,4-trifluoro-N-[(1S)-2-[[(7S)-5-(2-hydroxyethyl)-6-oxo-7H-pyrido[2,3-d][3]benzazepin-7-yl]amino]-1-methyl-2-oxo-ethyl]butanamide hydrate in outpatients with advanced or metastatic cancer.
# Cohort expansion of oral 4,4,4-trifluoro-N-[(1S)-2-[[(7S)-5-(2-hydroxyethyl)-6-oxo-7H-pyrido[2,3-d][3]benzazepin-7-yl]amino]-1-methyl-2-oxo-ethyl]butanamide hydrate in outpatients with advanced or metastatic cancer. Patients will be entered based on screened molecular alterations related to the Notch pathway. Patients initially dosed with 75 mg/dose administered T.I.W. are dose-reduced to 50 mg/dose administered T.I.W. […]
# (§3) Efficacy: Efficacy will be assessed using Response Evaluation Criteria in Solid Tumors (RECIST) v1.1 or using the Cheson et al., J. Clin. Oncol., 2007, 25(5): 579-586, response criteria for lymphoma. Each patient will be assessed by 1 or more of the following radiologic tests for tumor measurement: X-ray computerized tomography (CT) scan; magnetic resonance imaging (MRI); chest X-ray; positron emission tomography (PET) scan; dynamic contrast enhanced-magnetic resonance imaging (DCE-MRI); PET/CT imaging Standardized Uptake Values (SUVMAX); Dynamic Contrast-Enhanced Ultrasonography (DCE-US).
# Each patient's full extent of disease will also be assessed with: applicable tumor measurement by RECIST 1.1 (Eisenhauer et al., Eur J Cancer. 2009, 45(2): 228-247); Cheson et al., J. Clin. Oncol., 2007, 25(5): 579-586; and Choi et al., J Clin Oncol. […] To confirm objective responses, all lesions should be radiologically assessed, and the same radiologic method used for the initial response determination should be repeated at least 4 weeks following the initial observation of an objective response, using the sample method that was used at baseline. […]
# PTCL-NOS = test: Clinical evaluation in patients with relapsed or refractory peripheral T-cell lymphoma (PTCL-NOS patient); assay type: in vivo, human; settings: Patient 3, PTCL-NOS, cycle 1, oral capsules T.I.W., preliminary data
# Excerpt: as §1
# as §2, with “cancer. […]” for “cancer.”
# as §3
# Each patient's full extent of disease will also be assessed with: applicable tumor measurement by RECIST 1.1 (Eisenhauer et al., Eur J Cancer. 2009, 45(2): 228-247); Cheson et al., J. Clin. Oncol., 2007, 25(5): 579-586; and Choi et al., J Clin Oncol. […]
# [1] = Atropisomer equilibrium in solution by 1H NMR and LC-MS; assay type: physicochemical; settings: ambient temperature, after 24 hours
# Protocol: In aqueous solutions, 8-9% of atropisomer 2 (minor atropisomer) is detected by ^1H NMR and LC-MS in equilibrium with atropisomer 1 (major atropisomer) at ambient temperature after 24 hours. In organic solvents, at ambient temperature after 24 hours, approximately 1-2% of atropisomer 2 is detected by ^1H NMR and LC-MS in equilibrium with atropisomer 1. Although detectable by ^1H NMR and LC-MS analysis, atropisomer 2 is not isolable.
atropisomer 2 (minor atropisomer) detected in equilibrium with atropisomer 1 ([1]; aqueous solutions),atropisomer 2 (minor atropisomer) detected in equilibrium with atropisomer 1 ([1]; organic solvents),SMILES,"CT Scan assessment: Tumor decrease (AITL; Patient 1, AITL)","PET Scan (response) (AITL; Patient 1, AITL)","CT Scan assessment: Tumor decrease (AITL; Patient 2, AITL)",CT Scan assessment (PTCL-NOS),Other assessments: Abnormal T cells (PTCL-NOS)
,,"C[C@H](NC(=O)CCC(F)(F)F)C(=O)N[C@@H]1C(=O)N(CCO)c2ncccc2-c2ccccc21 [4,4,4-trifluoro-N-[(1S)-2-[[(7S)-5-(2-hydroxyethyl)-6-oxo-7H-pyrido[2,3-d][3]benzazepin-7-yl]amino]-1-methyl-2-oxo-ethyl]butanamide hydrate]",of 80%,Partial,of 20%,Stable,Decrease of
8-9%,1-2%,"C[C@H](NC(=O)CCC(F)(F)F)C(=O)N[C@@H]1C(=O)N(CCO)c2ncccc2-c2ccccc21 [Compound 1, 4,4,4-trifluoro-N-[(1S)-2-[[(7S)-5-(2-hydroxyethyl)-6-oxo-7H-pyrido[2,3-d][3]benzazepin-7-yl]amino]-1-methyl-2-oxo-ethyl]butanamide]",,,,,
